Measurements published in ChEMBL document CHEMBL1201862, “PubChem BioAssay data set” (2004).
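All cell lines were grown in 96-well plates and treated with compound for 48 hours. GI50 = concentration required for 50% inhibition of growth.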 Active and inactive are the calls of the source. Rule as the data show it: active = GI50 up to about 1.1 µM and inactive = higher.

Key:
Test in all cases: DTP human tumour cell line panel, 48 h
HT-29 = tested on: HT-29
EKVX = tested on: EKVX
NCI-H226 = tested on: NCI-H226
SR = tested on: SR
Hs-578T = tested on: Hs-578T
A498 = tested on: A498
DU-145 = tested on: DU-145
NCI-H522 = tested on: NCI-H522
DMS-273 = tested on: DMS-273
ACHN = tested on: ACHN
SK-MEL-28 = tested on: SK-MEL-28
SNB-19 = tested on: SNB-19
UACC-62 = tested on: UACC-62
U-251 = tested on: U-251
SK-OV-3 = tested on: SK-OV-3
KM12 = tested on: KM12
786-0 = tested on: 786-0
HOP-92 = tested on: HOP-92
CCRF-CEM = tested on: CCRF-CEM
UACC-257 = tested on: UACC-257

`COC1=C(C)C(=O)C2=C(C1=O)C1C3CC4=C(C(=O)C(OC)=C(C)C4=O)C(CNC(=O)C(C)O)N3C(C#N)C(C2)N1C` (stereo not given) was tested. Which GI50 (HT-29) did it give?
The GI50 was < 0.01 µM (active).

And the GI50 (EKVX)?
The GI50 was 0.0199 µM (active).

What about the GI50 (NCI-H226) of the same compound?
The GI50 was 0.0212 µM (active).

What about the GI50 (SR) of the same compound?
Its GI50 is < 0.01 µM (active).

And the GI50 (Hs-578T)?
Its GI50 is < 0.01 µM (active).

And the GI50 (A498)?
Its GI50 is 0.0107 µM (active).

And the GI50 (DU-145)?
The GI50 was 0.016 µM (active).

And the GI50 (NCI-H522)?
The GI50 was < 0.01 µM (active).

What about the GI50 (DMS-273) of the same compound?
The GI50 was < 0.01 µM (active).

And the GI50 (ACHN)?
Its GI50 is 0.157 µM (active).

And the GI50 (SK-MEL-28)?
The GI50 was < 0.01 µM (active).

What about the GI50 (SNB-19) of the same compound?
Its GI50 is < 0.01 µM (active).

And the GI50 (UACC-62)?
Its GI50 is < 0.01 µM (active).

What about the GI50 (U-251) of the same compound?
Its GI50 is < 0.01 µM (active).

And the GI50 (SK-OV-3)?
The GI50 was 0.0673 µM (active).

What about the GI50 (KM12) of the same compound?
Its GI50 is 0.0119 µM (active).

And the GI50 (786-0)?
Its GI50 is < 0.0113 µM (active).

And the GI50 (HOP-92)?
Its GI50 is < 0.01 µM (active).

What about the GI50 (CCRF-CEM) of the same compound?
The GI50 was < 0.01 µM (active).

And the GI50 (UACC-257)?
Its GI50 is < 0.01 µM (active).

With `CCN(CC)CCNC(=O)c1ccc(C)c(OCc2ccccc2)c1[N+](=O)[O-]` as the compound, how does the GI50 (HT-29) read?
The GI50 was 19.1 µM (inactive).

And the GI50 (EKVX)?
Its GI50 is 68.5 µM (inactive).

And the GI50 (NCI-H226)?
Its GI50 is 44.8 µM (inactive).

And the GI50 (SR)?
The GI50 was 27.7 µM (inactive).

What about the GI50 (Hs-578T) of the same compound?
The GI50 was 28.6 µM (inactive).

What about the GI50 (A498) of the same compound?
Its GI50 is 50 µM (inactive).

And the GI50 (DU-145)?
Its GI50 is > 90.2 µM (inactive).

And the GI50 (NCI-H522)?
The GI50 was 27 µM (inactive).

And the GI50 (DMS-273)?
The GI50 was 23.6 µM (inactive).

What about the GI50 (ACHN) of the same compound?
The GI50 was 56.8 µM (inactive).

And the GI50 (SK-MEL-28)?
Its GI50 is 19.4 µM (inactive).

And the GI50 (SNB-19)?
Its GI50 is > 80.7 µM (inactive).

What about the GI50 (UACC-62) of the same compound?
Its GI50 is 20.7 µM (inactive).

And the GI50 (U-251)?
The GI50 was 39.7 µM (inactive).

And the GI50 (SK-OV-3)?
The GI50 was 34.2 µM (inactive).

And the GI50 (KM12)?
The GI50 was 39.9 µM (inactive).

And the GI50 (786-0)?
Its GI50 is 33.3 µM (inactive).

And the GI50 (HOP-92)?
Its GI50 is 24.9 µM (inactive).

And the GI50 (CCRF-CEM)?
Its GI50 is 31.2 µM (inactive).

And the GI50 (UACC-257)?
Its GI50 is 19.1 µM (inactive).

How did the GI50 (HT-29) turn out when `CCCCCCCCCCCCC(=O)OC(c1cnco1)c1nc(C(O)CC(O)C(O)C(C)O)co1` (stereo not given) was run?
Its GI50 is 0.351 µM (active).

What about the GI50 (EKVX) of the same compound?
Its GI50 is 11.8 µM (inactive).

And the GI50 (NCI-H226)?
The GI50 was 9.18 µM (inactive).

What about the GI50 (SR) of the same compound?
The GI50 was < 0.0407 µM (active).

What about the GI50 (Hs-578T) of the same compound?
Its GI50 is 1.53 µM (inactive).

And the GI50 (A498)?
The GI50 was 20.9 µM (inactive).

What about the GI50 (DU-145) of the same compound?
The GI50 was > 10 µM (inactive).

And the GI50 (NCI-H522)?
Its GI50 is 0.787 µM (active).

What about the GI50 (DMS-273) of the same compound?
The GI50 was 0.104 µM (active).

What about the GI50 (ACHN) of the same compound?
The GI50 was 1.45 µM (inactive).

And the GI50 (SK-MEL-28)?
The GI50 was 0.5 µM (active).

And the GI50 (SNB-19)?
The GI50 was 11.3 µM (inactive).

And the GI50 (UACC-62)?
Its GI50 is 0.341 µM (active).

And the GI50 (U-251)?
The GI50 was 0.129 µM (active).

And the GI50 (SK-OV-3)?
The GI50 was 3.94 µM (inactive).

And the GI50 (KM12)?
Its GI50 is 0.766 µM (active).

What about the GI50 (786-0) of the same compound?
The GI50 was 0.217 µM (active).

And the GI50 (HOP-92)?
Its GI50 is 1.34 µM (inactive).

What about the GI50 (CCRF-CEM) of the same compound?
Its GI50 is 0.284 µM (active).

What about the GI50 (UACC-257) of the same compound?
Its GI50 is 0.755 µM (active).
